Test results as given in patent publication US11980658B2, “Immunotherapeutic molecules and uses thereof” (priority 2012, dated 2024).
Entries after “also recorded” stand apart in the source; their conditions may differ. Where no end group is shown, it is not given here.

Legend:
Format in all cases: cell-based, human
[1] = tested on: HLA-DR, HLA-DQ, HLA-DP; assay: HLA class II restriction of epitope recognition by TCL (blocking mAbs); details: anti-HLA-DR, -DP or -DQ mAbs
Description: (§1) All culturing was performed in RPMI-1640 containing 2 mM L-glutamine, 100 IU/mL penicillin-streptomycin and 5% heat-inactivated human AB serum (Sigma-Aldrich, St Louis, USA) (cRPMI). Antigen-induced TCL proliferation was assessed by ^3H-thymidine (3H-TdR) uptake assays as described (Prickett et al. 2011 supra). A stimulation index (SI; cpm antigen-stimulated T cells/cpm unstimulated T cells) >2.5 was considered positive and all positive responses confirmed in >2 assays. HLA-restriction of epitope recognition by TCL was assessed using monoclonal antibodies (mAb) against HLA-DR (L243), HLA-DQ (SVP-L3) or HLA-DP (B7/21) to block epitope presentation as described (Prickett et al. 2011 supra). To allow detection of peptide-induced CD4+ T-cell proliferation within whole PBMC, 7-day cultures of CFSE-labelled PBMC were set up as described for TCL generation (Prickett et al. 2011 supra). At least 10,000 CD4^+ T cells were analyzed per sample and SI calculated as percentage of CD4^+CFSE^lo (proliferated) cells with antigen/percentage of CD4^+CFSE^lo cells without antigen (background). The detection threshold for a specific response in this assay was assessed by expanding peptide-specific TCL from proliferated CD4^+ cells over a range of SI values for three subjects. Specific TCL could be generated from divided T cells with SI as low as 1.1 in all three subjects (data not shown) allowing designation of an SI>1.1 as positive.
There is no identified HLA-II association with peanut allergy (Shreffler et al. Ann Allergy Asthma Immunol 2006; 96(6):865-9), therefore peptides selected for therapy must bind diverse HLA-II molecules for wide applicability. To determine the HLA-II type presenting each epitope, anti-HLA-DR, -DP or -DQ mAbs were used to block individual epitope presentation to T cells. […] At least two subjects and/or TCL were tested per epitope (FIG. 8).

[2] = tested on: Ara h 1-specific CD4+ T-cell lines (TCL); assay: Antigen-induced TCL proliferation, 3H-thymidine uptake assay; details: for Donor responder frequency for TCL recognition of Ara h 1 20-mer peptides: n=18 peanut-allergic subjects, SI≥2.5
Source text: Ara h 1-specific oligoclonal TCL were generated from peripheral blood mononuclear cells (PBMC) of peanut-allergic subjects using 5,6-carboxyfluorescein diacetate succinimidylester (CFSE)-based methodology (Mannering et al. J Immunol Methods. 2005; 298(1-2):83-92) as described (Prickett et al. 2011 supra), with CPE ([…]), Ara h 1 (10 gg/mL) or 20-mer peptides spanning the Ara h 1 sequence (11 amino acid (aa) overlap (17 aa overlap for the last peptide); Table 5; 10 pg/mL/peptide) as the driving antigens. All TCL were tested for specificity (proliferation) to individual Ara h 1 20-mers (10 pg/mL) as well as CPE ([…]) and/or Ara h 1 (10 pg/mL) Core epitope sequences were mapped within selected 20-mers using peptide sets truncated from the N- or C-terminus of the 20-mer as described (Prickett et al. 2011 supra).
as §1

[3] = tested on: basophils; assay: Basophil activation test (CD63 upregulation by flow cytometry)
Description: Basophil activation was assessed by CD63 upregulation detected by flow cytometry as described (Drew et al. J Immunol. 2004; 173(9):5872-9). Positive controls were rabbit anti-human IgE antibody (7.5 ug/mL; DAKO Corporation, CA, USA), N-formyl-methionine-leucine-phenylalanine (fMLP) (0.4 ug/mL; Sigma) and CPE. CPE, Ara h 1 and peptides were tested over a 3-log concentration range (5, 0.5 and 0.05 ug/mL)

Molecule: ALMLPHFNSKAMVIVVV (Chemcially synthezised) [(442-458)]
- HLA class II restriction (mAb that blocked epitope recognition) [1]: HLA-DR-restricted

Molecule: ALMLPHFNSKAMVIVVVNKG [compound 50]
- Donor responder frequency for TCL recognition of Ara h 1 20-mer peptides [2]: 33%

Molecule: FQNLQNHRIVQIEAKPNTLV [(206-225)]
- TCL stimulation / recognition (in words) [2]: efficiently stimulated TCL specific for either epitope

Molecule: GDVFIMPAAHPVAINASS (Chemcially synthezised) [(507-524)]
- HLA class II restriction (mAb that blocked epitope recognition) [1]: blocked by anti-HLA-DR for some TCL but by anti-HLA-DQ for others; also recorded: HLA-DQ restricted

Molecule: KAMVIVVVNKGTGNLELVAV (Chemcially Synthezised) [compound 51]
- TCL stimulation / recognition (in words) [2]: efficiently stimulated TCL specific for either epitope
- Donor responder frequency for TCL recognition of Ara h 1 20-mer peptides [2]: 33%

Molecule: NNFGKLFEVKPDKKNPQLQ [(409-427), NNFGKLFEVKPDKKNPQLQ]
- Basophil activation (percentage of activated CD63hi basophils) [3]: 8%

Molecule: VEIKEGALMLPHFNSKA (Chemcially synthezised) [(436-452)]
- HLA class II restriction (mAb that blocked epitope recognition) [1]: blocked by anti-HLA-DR for some TCL but by anti-HLA-DQ for others

Molecule: WSTRSSENNEGVIVKVSKE [(353-371)]
- HLA class II restriction (mAb that blocked epitope recognition) [1]: blocked by anti-HLA-DQ in both subjects tested

B1: Ara h 1: major peanut allergen, 7S seed storage glycoprotein or vicilin, enriched from CPE by liquid chromatography (protein, listed as Homo sapiens)
chain: MRGRVSPLMLLLGILVLASVSATHAKSSPYQKKTENPCAQRCLQSCQQEPDDLKQKACESRCTKLEYDPRCVYDPRGHTGTTNQRSPPGERTRGRQPGDYDDDRRQPRREEGGRWGPAGPREREREEDWRQPREDWRRPSHQQPRKIRPEGREGEQEWGTPGSHVREETSRNNPFYFPSRRFSTRYGNQNGRIRVLQRFDQRSRQFQNLQNHRIVQIEAKPNTLVLPKHADADNILVIQQGQATVTVANGNNRKSFNLDEGHALRIPSGFISYILNRHDNQNLRVAKISMPVNTPGQFEDFFPASSRDQSSYLQGFSRNTLEAAFNAEFNEIRRVLLEENAGGEQEERGQRRWSTRSSENNEGVIVKVSKEHVEELTKHAKSVSKKGSEEEGDITNPINLREGEPDLSNNFGKLFEVKPDKKNPQLQDLDMMLTCVEIKEGALMLPHFNSKAMVIVVVNKGTGNLELVAVRKEQQQRGRREEEEDEDEEEEGSNREVRRYTARLKEGDVFIMPAAHPVAINASSELHLLGFGINAENNHRIFLAGDKDNVIDQIEKQAKDLAFPGSGEQVEKLIKNQKESHFVSARPQSQSQSPSSPEKESPEKEDQEEENQGGKGPLLSILKAFN
- Basophil activation (percentage of activated CD63hi basophils) [3]: 80-90%
